From patent US9273043B2, “TRPV1 antagonists including dihydroxy substituent and uses thereof” (Purdue Pharma L.P., priority 2011, dated 2016)

System: neuropathic mechanical hyperalgesia after partial sciatic nerve ligation
Assay: Seltzer model (partial sciatic nerve ligation) of neuropathic pain, paw withdrawal threshold
Format: in vivo, rat
Conditions: for % Reversal [mean ± SEM]: rat; for % reversal of neuropathic hyperalgesia / % reversal of neuropathic hyperalgesia, maximum analgesic efficacy: rat Seltzer model
Experimental: In the Seltzer model, the partial sciatic nerve ligation model of neuropathic pain was used to produce neuropathic hyperalgesia in rats (Seltzer et al., “A Novel Behavioral Model of Neuropathic Pain Disorders Produced in Rats by Partial Sciatic Nerve Injury,” Pain 43:205-218 (1990)). Partial ligation of the left sciatic nerve was performed under isoflurane/O2 inhalation anaesthesia. Following induction of anesthesia, the left thigh of the male, 6-7 week old Jcl:SD rat was shaved. The sciatic nerve was exposed at high thigh level through a small incision and was carefully cleared of surrounding connective tissues at a site near the trocanther just distal to the point at which the posterior biceps semitendinosus nerve branches off of the common sciatic nerve. A 7-0 silk suture was inserted into the nerve with a ⅜ curved, reversed-cutting mini-needle and tightly ligated so that the dorsal ⅓ to ½ of the nerve thickness was held within the ligature. The wound was closed with a single muscle suture (4-0 nylon (Vicryl)) and vetbond tissue glue. The wound area was then dusted with antibiotic powder. Sham treatment involved an identical surgical procedure except that the sciatic nerve was not manipulated or ligated.
Following surgery, animals were weighed and placed on a warm pad until they recovered from anesthesia. Animals were then returned to their home cages until behavioral testing began. The animal was assessed for response to noxious mechanical stimuli by determining PWT for the rear paw of the animal, as described below, prior to surgery (baseline), then immediately prior to and 1, 3, 5, 7, and 24 hours after oral drug-in-vehicle administration (for day 1). Thus, the 24 hour time point was the start of the next day when drug-in-vehicle was again orally administered (24 hours after the prior administration). On days 2 and 3, PWT response was determined 1, 3, and 24 hours thereafter. Percentage reversal of neuropathic hyperalgesia at each of the specified times after administration was defined as: […]
Additionally, 10 mg/kg of pregabalin (Kemprotec, Ltd., Middlesbrough, UK), an anticonvulsant accepted for relief of particular neuropathic pain, in vehicle and the vehicle alone (0.5% weight/volume methylcellulose (400cP, Wako Pure Chemical Industries, Ltd.)/aqueous solution) were orally administered as controls. […] Ten rats that underwent partial ligation of the left sciatic nerve were used for each treatment group. Dunnett's test was conducted for the % reversal; values with p<0.05 were considered to be statistically significant.
Additionally, as a control the rats underwent sham surgery in which an identical surgical procedure was followed with regard to the right thigh but the sciatic nerve was neither manipulated nor ligated.
Response to Mechanical Stimuli as an Assessment of Mechanical Hyperalgesia: The paw pressure assay was used to assess mechanical hyperalgesia. […] Biochem. and Behavior 31:451-455 (1988). The maximum weight that could be applied to the hind paw was set at 250 g and the end point was taken as complete withdrawal of the paw. PWT was determined once for each rat at each time point and either only the affected (ipsilateral) paw was tested, or both the ipsilateral and contralateral (non-injured) paw were tested.

## CC1CN(c2ncc(C(O)CO)cc2F)CCN1C(=O)Nc1nc2cc(F)ccc2s1.O=C(O)C=CC(=O)O (centres unmarked)
1 mg/kg oral once daily, 1 hours (day 2) after administration
  % Reversal [mean ± SEM]: 12.04 ± 4.92 %
1 mg/kg oral once daily, 1 hours (day 3) after administration
  % Reversal [mean ± SEM]: 6.44 ± 6.50%
1 mg/kg oral once daily, 3 hours (day 2) after administration
  % Reversal [mean ± SEM]: 12.84 ± 4.12 %
1 mg/kg oral once daily, 3 hours (day 3) after administration
  % Reversal [mean ± SEM]: 9.58 ± 5.23%
1 mg/kg oral once daily, 24 hours (0 hrs day 2) after administration
  % Reversal [mean ± SEM]: 0.71 ± 2.46%
1 mg/kg oral once daily, 24 hours (0 hrs day 3) after administration
  % Reversal [mean ± SEM]: 4.89 ± 2.68%
1 mg/kg oral once daily, 24 hours (0 hrs day 4) after administration
  % Reversal [mean ± SEM]: 0.51 ± 3.15%
1 mg/kg oral, 1 hours (day 1) after administration
  % Reversal [mean ± SEM]: 14.60 ± 4.26%
1 mg/kg oral, 3 hours (day 1) after administration
  % Reversal [mean ± SEM]: 17.04 ± 4.91 %
1 mg/kg oral, 5 hours (day 1) after administration
  % Reversal [mean ± SEM]: 11.39 ± 3.13 %
1 mg/kg oral, 7 hours (day 1) after administration
  % Reversal [mean ± SEM]: 3.04 ± 4.49%
3 mg/kg oral once daily, 1 hours (day 2) after administration
  % Reversal [mean ± SEM]: 12.57 ± 2.38 %
3 mg/kg oral once daily, 1 hours (day 3) after administration
  % Reversal [mean ± SEM]: 11.80 ± 3.29%
3 mg/kg oral once daily, 3 hours (day 2) after administration
  % Reversal [mean ± SEM]: 17.14 ± 5.38 %
3 mg/kg oral once daily, 3 hours (day 3) after administration
  % Reversal [mean ± SEM]: 17.34 ± 3.91 %
3 mg/kg oral once daily, 24 hours (0 hrs day 2) after administration
  % Reversal [mean ± SEM]: −5.34 ± 4.20%
3 mg/kg oral once daily, 24 hours (0 hrs day 3) after administration
  % Reversal [mean ± SEM]: −3.85 ± 4.61%
3 mg/kg oral once daily, 24 hours (0 hrs day 4) after administration
  % Reversal [mean ± SEM]: −1.95 ± 2.97%
3 mg/kg oral, 1 hours (day 1) after administration
  % Reversal [mean ± SEM]: 15.69 ± 4.62%
3 mg/kg oral, 3 hours (day 1) after administration
  % Reversal [mean ± SEM]: 18.39 ± 1.67 %
3 mg/kg oral, 5 hours (day 1) after administration
  % Reversal [mean ± SEM]: 12.22 ± 1.89 %
3 mg/kg oral, 7 hours (day 1) after administration
  % Reversal [mean ± SEM]: 7.65 ± 2.79%
10 mg/kg oral once daily, 1 hours (day 2) after administration
  % Reversal [mean ± SEM]: 27.41 ± 4.56 %
10 mg/kg oral once daily, 1 hours (day 3) after administration
  % Reversal [mean ± SEM]: 23.36 ± 4.69 %
10 mg/kg oral once daily, 3 hours (day 2) after administration
  % Reversal [mean ± SEM]: 29.12 ± 5.44 %
10 mg/kg oral once daily, 3 hours (day 3) after administration
  % Reversal [mean ± SEM]: 28.91 ± 5.72 %
10 mg/kg oral once daily, 24 hours (0 hrs day 2) after administration
  % Reversal [mean ± SEM]: 3.38 ± 3.97%
10 mg/kg oral once daily, 24 hours (0 hrs day 3) after administration
  % Reversal [mean ± SEM]: 2.87 ± 4.62%
10 mg/kg oral once daily, 24 hours (0 hrs day 4) after administration
  % Reversal [mean ± SEM]: 11.09 ± 3.45%
10 mg/kg oral, 1 hours (day 1) after administration
  % Reversal [mean ± SEM]: 32.51 ± 5.00 %
10 mg/kg oral, 3 hours (day 1) after administration
  % Reversal [mean ± SEM]: 34.17 ± 5.60 %
10 mg/kg oral, 5 hours (day 1) after administration
  % Reversal [mean ± SEM]: 19.59 ± 3.04 %
10 mg/kg oral, 7 hours (day 1) after administration
  % Reversal [mean ± SEM]: 17.06 ± 2.95 %
Oral 1 mg/kg once daily, day 2, 3 hour time point
  % reversal of neuropathic hyperalgesia: 12.84%
Oral 1 mg/kg, single (day 1) administration
  % reversal of neuropathic hyperalgesia, maximum analgesic efficacy: 17.04%
Oral 3 mg/kg once daily, day 2, 3 hour time point
  % reversal of neuropathic hyperalgesia: 17.14%
Oral 3 mg/kg once daily, day 3, 3 hour time point
  % reversal of neuropathic hyperalgesia: 17.34%
Oral 3 mg/kg, 3 h after day 1 administration
  % reversal of neuropathic hyperalgesia, maximum analgesic efficacy: 18.39%
Oral 10 mg/kg once daily, day 2, 3 hour time point
  % reversal of neuropathic hyperalgesia: 29.12%
Oral 10 mg/kg once daily, day 3, 3 hour time point
  % reversal of neuropathic hyperalgesia: 28.91%
Oral 10 mg/kg, 3 h after day 1 administration (maximum)
  % reversal of neuropathic hyperalgesia: 34.17%
